For the data set the following is noted: from C=CCOCC(c1ccc([C@H](C)Nc2ncc3c(n2)N([C@@H](C)CC=C)C(=O)OC3)cc1)N1CCN(C(=O)OC(C)(C)C)CC1; rcm bond; 18-membered ring; Hoveyda-Grubbs II (0.1 eq); DCE; 8.24 mM; 60.0 °C; 9.0 h.

For the compound `C[C@@H]1Nc2ncc3c(n2)N(C(=O)OC3)[C@@H](C)CC=CCOCC(N2CCN(C(=O)OC(C)(C)C)CC2)c2ccc1cc2` (stereo partly shown), the ring closure, yield after HPLC was 27.6%.
